Experimental findings from patent US20160158368A1, “METHODS AND COMPOSITIONS FOR THE TREATMENT OF HISTIOCYTOSIS” (Therapure Biopharma Inc., priority 2014, published 2016) are described below.

In assay [1] the test system is SU-DHL-1 cells. Kind of assay: PrestoBlue cell viability assay, SU-DHL-1 cells. It is filed as cell-based, human. To be noted: for growth inhibition: SU-DHL-1 cells.
Assay [2] relates to U937 cells. The assay is described as follows: PrestoBlue cell viability assay, U937 cells. Format: cell-based, human. To be noted: for growth inhibition: U937 cells.

With `Nc1nc(Cl)nc2c1ncn2C1CC(O)C(CO)O1` (stereo not drawn) [cladribine, 5-(6-amino-2-chloro-purin-9-yl)-2-(hydroxymethyl)oxolan-3-ol], the IC50 in assay [1] (Homo sapiens, SU-DHL-1, 48 hours, cell viability, n=3, read-out: average half maximal inhibitory concentration (IC50)) stood at 204 nM; in assay [2] (Homo sapiens, U-937, U937, 48 hours, cell viability, n=3, read-out: average half maximal inhibitory concentration (IC50)), 42 nM. The growth inhibition entry in assay [1] and in assay [2] was “dose-dependent growth inhibition” throughout.

As to “hemoglobin: human hemoglobin, a CD163 ligand, unconjugated control”, the growth inhibition result in assay [1] and in assay [2] was “not” each time.
